Results: ChEMBL document CHEMBL3885881, “DrugMatrix”

Organism: Rattus norvegicus
Experiment: DrugMatrix - Regimen: Daily Repeat
Type: toxicity, organism-based, Sprague-Dawley
Design: regimen Daily Repeat, gender Male, age 6-8 weeks
Details: in vivo, po, route oral GAVAGE, vehicle .5 % CMC; for ABSOLUTE BASOPHIL / ABSOLUTE EOSINOPHIL / ABSOLUTE LYMPHOCYTE / ABSOLUTE MONOCYTE / ABSOLUTE SEGMENTED NEUTROPHIL / BASOPHIL / EOSINOPHIL / ERYTHROCYTE COUNT / HEMATOCRIT / HEMOGLOBIN / LEUKOCYTE COUNT / LYMPHOCYTE / MEAN CORPUSCULAR HEMOGLOBIN / MEAN CORPUSCULAR HEMOGLOBIN CONCENTRATION / MEAN CORPUSCULAR VOLUME / MONOCYTE / NEUTROPHIL / NUCLEATED RED BLOOD CELLS / PLATELET COUNT: tissue Blood; for ALANINE AMINOTRANSFERASE / ALBUMIN / ALKALINE PHOSPHATASE / ASPARTATE AMINOTRANSFERASE / BLOOD UREA NITROGEN / CARBON DIOXIDE / CHLORIDE / CHOLESTEROL / CREATINE PHOSPHOKINASE / CREATININE / GLUCOSE / LACTATE DEHYDROGENASE / LIPASE / PHOSPHORUS / POTASSIUM / SODIUM / TOTAL BILIRUBIN / TOTAL PROTEIN / URIC ACID: tissue Plasma
[1] = 10 mg/kg, 72 h, dose level Low, time 3 day
[2] = 10 mg/kg, 120 h, dose level Low, time 5 day
[3] = 350 mg/kg, 72 h, dose level High, time 3 day

CCC1(c2ccc(N)cc2)CCC(=O)NC1=O (centres undefined) [AMINOGLUTETHIMIDE]
ABSOLUTE BASOPHIL [1]: 0 CELLS/uL | ABSOLUTE EOSINOPHIL [1]: 0 CELLS/uL | ABSOLUTE LYMPHOCYTE [1]: 11710.67 CELLS/uL | ABSOLUTE MONOCYTE [1]: 267.33 CELLS/uL | ABSOLUTE SEGMENTED NEUTROPHIL [1]: 2622 CELLS/uL | BASOPHIL [1]: 0% | EOSINOPHIL [1]: 0% | ERYTHROCYTE COUNT [1]: 5.37 x10E6/uL | HEMATOCRIT [1]: 34.23% | HEMOGLOBIN [1]: 13.47 G/DL | LEUKOCYTE COUNT [1]: 14.6 x10E3/uL | LYMPHOCYTE [1]: 80.33% | MEAN CORPUSCULAR HEMOGLOBIN [1]: 25.1 pg | MEAN CORPUSCULAR HEMOGLOBIN CONCENTRATION [1]: 39.33 G/DL | MEAN CORPUSCULAR VOLUME [1]: 63.77 fL | MONOCYTE [1]: 1.67% | NEUTROPHIL [1]: 18% | NUCLEATED RED BLOOD CELLS [1]: 0 /100WBC | PLATELET COUNT [1]: 1364.33 x10E3/uL | ALANINE AMINOTRANSFERASE [1]: 54.67 u/L | ALBUMIN [1]: 4.07 G/DL | ALKALINE PHOSPHATASE [1]: 367 u/L | ASPARTATE AMINOTRANSFERASE [1]: 87.33 u/L | BLOOD UREA NITROGEN [1]: 17 mg/dL | CARBON DIOXIDE [1]: 26 mmol/L | CHLORIDE [1]: 102 MEQ/L | CHOLESTEROL [1]: 69.33 mg/dL | CREATINE PHOSPHOKINASE [1]: 357.33 u/L | CREATININE [1]: 0.16 mg/dL | GLUCOSE [1]: 160 mg/dL | LACTATE DEHYDROGENASE [1]: 241.67 u/L | LIPASE [1]: 9.33 u/L | PHOSPHORUS [1]: 13 mg/dL | POTASSIUM [1]: 6.52 MEQ/L | SODIUM [1]: 143.27 MEQ/L | TOTAL BILIRUBIN [1]: 0.2 mg/dL | TOTAL PROTEIN [1]: 5.67 G/DL | URIC ACID [1]: 1.83 mg/dL | ABSOLUTE BASOPHIL [2]: 0 CELLS/uL | ABSOLUTE EOSINOPHIL [2]: 0 CELLS/uL | ABSOLUTE LYMPHOCYTE [2]: 14655 CELLS/uL | ABSOLUTE MONOCYTE [2]: 54.33 CELLS/uL | ABSOLUTE SEGMENTED NEUTROPHIL [2]: 1457.33 CELLS/uL | BASOPHIL [2]: 0% | EOSINOPHIL [2]: 0% | ERYTHROCYTE COUNT [2]: 5.82 x10E6/uL | HEMATOCRIT [2]: 35.6% | HEMOGLOBIN [2]: 14.1 G/DL | LEUKOCYTE COUNT [2]: 16.17 x10E3/uL | LYMPHOCYTE [2]: 90.67% | MEAN CORPUSCULAR HEMOGLOBIN [2]: 24.23 pg | MEAN CORPUSCULAR HEMOGLOBIN CONCENTRATION [2]: 39.67 G/DL | MEAN CORPUSCULAR VOLUME [2]: 61.17 fL | MONOCYTE [2]: 0.33% | NEUTROPHIL [2]: 9% | NUCLEATED RED BLOOD CELLS [2]: 0 /100WBC | PLATELET COUNT [2]: 1044 x10E3/uL | ALANINE AMINOTRANSFERASE [2]: 56 u/L | ALBUMIN [2]: 4.33 G/DL | ALKALINE PHOSPHATASE [2]: 463 u/L | ASPARTATE AMINOTRANSFERASE [2]: 91.67 u/L | BLOOD UREA NITROGEN [2]: 16.67 mg/dL | CARBON DIOXIDE [2]: 27 mmol/L | CHLORIDE [2]: 100 MEQ/L | CHOLESTEROL [2]: 67 mg/dL | CREATINE PHOSPHOKINASE [2]: 282 u/L | CREATININE [2]: 0.2 mg/dL | GLUCOSE [2]: 155.67 mg/dL | LACTATE DEHYDROGENASE [2]: 347.67 u/L | LIPASE [2]: 12.33 u/L | PHOSPHORUS [2]: 11.8 mg/dL | POTASSIUM [2]: 6.27 MEQ/L | SODIUM [2]: 142.47 MEQ/L | TOTAL BILIRUBIN [2]: 0.17 mg/dL | TOTAL PROTEIN [2]: 5.87 G/DL | URIC ACID [2]: 1.8 mg/dL | ABSOLUTE BASOPHIL [3]: 0 CELLS/uL | ABSOLUTE EOSINOPHIL [3]: 0 CELLS/uL | ABSOLUTE LYMPHOCYTE [3]: 12308.33 CELLS/uL | ABSOLUTE MONOCYTE [3]: 135 CELLS/uL | ABSOLUTE SEGMENTED NEUTROPHIL [3]: 1890 CELLS/uL | BASOPHIL [3]: 0% | EOSINOPHIL [3]: 0% | ERYTHROCYTE COUNT [3]: 6.41 x10E6/uL | HEMATOCRIT [3]: 37.93% | HEMOGLOBIN [3]: 15.13 G/DL | LEUKOCYTE COUNT [3]: 14.33 x10E3/uL | LYMPHOCYTE [3]: 84.67% | MEAN CORPUSCULAR HEMOGLOBIN [3]: 23.57 pg | MEAN CORPUSCULAR HEMOGLOBIN CONCENTRATION [3]: 39.87 G/DL | MEAN CORPUSCULAR VOLUME [3]: 59.1 fL | MONOCYTE [3]: 1% | NEUTROPHIL [3]: 14.33% | NUCLEATED RED BLOOD CELLS [3]: 0 /100WBC | PLATELET COUNT [3]: 1180.67 x10E3/uL | ALANINE AMINOTRANSFERASE [3]: 78.33 u/L | ALBUMIN [3]: 3.73 G/DL | ALKALINE PHOSPHATASE [3]: 251.67 u/L | ASPARTATE AMINOTRANSFERASE [3]: 137.67 u/L | BLOOD UREA NITROGEN [3]: 12 mg/dL | CARBON DIOXIDE [3]: 27.33 mmol/L | CHLORIDE [3]: 100 MEQ/L | CHOLESTEROL [3]: 103.67 mg/dL | CREATINE PHOSPHOKINASE [3]: 398 u/L | CREATININE [3]: 0.14 mg/dL | GLUCOSE [3]: 120 mg/dL | LACTATE DEHYDROGENASE [3]: 202.67 u/L | LIPASE [3]: 10.33 u/L | PHOSPHORUS [3]: 12.03 mg/dL | POTASSIUM [3]: 5.62 MEQ/L | SODIUM [3]: 144.37 MEQ/L | TOTAL BILIRUBIN [3]: 0.13 mg/dL | TOTAL PROTEIN [3]: 5.23 G/DL | URIC ACID [3]: 1.73 mg/dL
